Results as given in the supplement of paper PMC10331698.
± gives the standard deviation of the averaged measurements.

How the values were obtained:
Test in all cases: level (log10 ratio to DMSO vehicle control); higher = higher biomarker level / cell amount than vehicle control
Conditions in all cases: in DMSO
[1] = compound: O=C(O)C(F)(F)C(F)(F)C(F)(F)OC(F)(C(F)(F)F)C(F)(F)F [Perfluoro-4-isopropoxybutanoic acid]
Description: (§1)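 BioMAP Diversity Plus panel of 12 human primary cell co-culture systems (3C, 4H, LPS, SAg, BT, BF4T, BE3C, CASM3C, HDF3CGF, KF3CT, MyoF, Mphg). Compounds were added 1 h before stimulation and left for 24 h (MyoF 48 h; BT 72 h for soluble read-outs or 6 d for IgG). Biomarkers were read by ELISA, cytotoxicity by SRB, PBMC viability and proliferation by Alamar Blue. Each well value was divided by the mean of 8 DMSO control wells on the same plate and log10 transformed; duplicate blinded samples were tested at 4 concentrations.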

[2] = compound: COC(=O)CCC(F)(F)C(F)(F)C(F)(F)C(F)(F)F [Methyl 2H,2H,3H,3H-perfluoroheptanoate]
Description: as §1

[3] = compound: FC(F)(F)C(F)(F)C(F)(F)C(F)(F)C(F)(F)C(F)(F)C(F)(F)C(F)(F)CCS [2-(Perfluorooctyl)ethanthiol]
Description: as §1

[4] = compound: OCCC(F)(F)C(F)(F)C(F)(F)C(F)(F)C(F)(F)C(F)(F)F [6:2 Fluorotelomer alcohol]
Description: as §1

[5] = compound: O=C(O)C(F)(F)C(F)(F)OC(F)(F)F [Perfluoro-3-methoxypropanoic acid]
Description: as §1

Perfluorobutanoic acid = compound: O=C(O)C(F)(F)C(F)(F)C(F)(F)F [Perfluorobutanoic acid]
Description: as §1

[6] = compound: NCC(F)(F)C(F)(F)C(F)(F)C(F)(F)C(F)(F)C(F)(F)C(F)(F)F [1H,1H-Perfluorooctylamine]
Description: as §1

Row | Test System | level (log10) ([1]; 6700 nM) | level (log10) ([1]; 20000 nM) | level (log10) ([1]; 60000 nM) | level (log10) ([2]; 6700 nM) | level (log10) ([2]; 20000 nM) | level (log10) ([2]; 60000 nM) | level (log10) ([3]; 6700 nM) | level (log10) ([3]; 20000 nM) | level (log10) ([4]; 6700 nM) | level (log10) ([4]; 20000 nM) | level (log10) ([5]; 6700 nM) | level (log10) ([5]; 20000 nM) | level (log10) ([5]; 60000 nM) | level (log10) (Perfluorobutanoic acid; 6700 nM) | level (log10) (Perfluorobutanoic acid; 20000 nM) | level (log10) (Perfluorobutanoic acid; 60000 nM) | level (log10) ([6]; 6700 nM) | level (log10) ([6]; 20000 nM) | level (log10) ([6]; 60000 nM)
1 | BT:Secreted IgG | -0.0115 ± 0.0035 | -0.0005 ± 0.03 | -0.059 ± 0.013 | 0.015 ± 0.017 | -0.002 ± 0.0071 | -0.025 ± 0.018 | 0.02 ± 0.0071 | 0.016 ± 0.0014 | 0.02 | 0.0195 ± 0.0035 | -0.0085 ± 0.0021 | 0.01 ± 0.018 | 0.0155 ± 0.0035 | 0.017 ± 0.0028 | -0.02 ± 0.035 | 0.0055 ± 0.022 | 0.0485 ± 0.03 | 0.039 ± 0.034 | -0.0175 ± 0.04
2 | SAg:Proliferation | -0.018 ± 0.0042 | -0.007 ± 0.0028 | 0.0175 ± 0.04 | 0.0115 ± 0.029 | 0.001 ± 0.0014 | 0.0075 ± 0.0078 | 0.056 ± 0.016 | 0.0225 ± 0.03 | -0.015 ± 0.027 | -0.024 ± 0.013 | -0.0075 ± 0.035 | -0.015 ± 0.033 | 0.0005 ± 0.026 | -0.04 ± 0.0099 | 0.0325 ± 0.029 | -0.0065 ± 0.039 | -0.004 ± 0.024 | -0.0195 ± 0.019 | -0.174 ± 0.24
3 | BT:PBMC Cytotoxicity | 0.02 ± 0.0028 | -0.0165 ± 0.0021 | 0.056 ± 0.016 | 0.032 ± 0.014 | 0.0045 ± 0.0092 | 0.0045 ± 0.021 | -0.0395 ± 0.012 | 0.02 ± 0.0028 | -0.0185 ± 0.026 | -0.035 ± 0.0071 | -0.0195 ± 0.061 | -0.0215 ± 0.019 | -0.0005 ± 0.029 | 0.003 ± 0.011 | 0.0255 ± 0.018 | -0.0175 ± 0.00071 | -0.0095 ± 0.005 | -0.0065 ± 0.005 | -0.0045 ± 0.036
4 | BF4T:CCL26/Eotaxin-3 | -0.0055 ± 0.09 | -0.0185 ± 0.069 | -0.0105 ± 0.016 | -0.0095 ± 0.005 | -0.0175 ± 0.0092 | -0.016 ± 0.0042 | -0.0585 ± 0.04 | -0.037 ± 0.0099 | -0.0055 ± 0.15 | -0.023 ± 0.081 | -0.033 ± 0.0085 | -0.031 ± 0.016 | 0.02 ± 0.057 | -0.0225 ± 0.042 | 0.0075 ± 0.0021 | 0.008 ± 0.028 | 0.0175 ± 0.049 | -0.0085 ± 0.016 | 0.037 ± 0.037
5 | 3C:SRB | 0.0005 ± 0.011 | -0.0075 ± 0.015 | -0.017 ± 0.024 | 0.0125 ± 0.036 | 0.0085 ± 0.028 | -0.004 ± 0.016 | 0.005 ± 0.0071 | -0.013 ± 0.016 | -0.006 ± 0.023 | 0.004 ± 0.028 | 0.001 ± 0.0014 | 0.0005 ± 0.019 | -0.004 ± 0.017 | -0.021 ± 0.027 | -0.017 ± 0.013 | -0.0085 ± 0.0035 | 0.0005 ± 0.0035 | 0.002 ± 0.0071 | 0.0045 ± 0.046
6 | BE3C:CD54/ICAM-1 | -0.0095 ± 0.022 | -0.014 ± 0.024 | -0.0245 ± 0.005 | -0.0075 ± 0.0092 | 0.0105 ± 0.018 | 0.002 ± 0.011 | -0.0055 ± 0.028 | -0.0055 ± 0.015 | 0.0035 ± 0.018 | 0.001 ± 0.016 | 0.003 ± 0.013 | -0.0035 ± 0.0021 | 0.0065 ± 0.011 | -0.0015 ± 0.023 | -0.0165 ± 0.0092 | 0.011 ± 0.025 | 0.009 ± 0.0099 | -0.0045 ± 0.012 | 0.017 ± 0.034
7 | 3C:HLA-DR | 0.0145 ± 0.044 | -0.0035 ± 0.005 | 0.002 ± 0.016 | -0.026 ± 0.0071 | 0.03 ± 0.027 | 0.0085 ± 0.032 | -0.015 ± 0.018 | -0.0235 ± 0.0078 | 0.0095 ± 0.012 | -0.01 ± 0.021 | -0.0095 ± 0.015 | -0.043 ± 0.0085 | -0.014 ± 0.0028 | -0.0035 ± 0.028 | -0.0215 ± 0.00071 | -0.0115 ± 0.021 | 0.004 ± 0.047 | 0.023 ± 0.057 | 0.023 ± 0.041
8 | 3C:CXCL8/IL-8 | -0.0055 ± 0.015 | 0.007 ± 0.013 | 0.043 ± 0.034 | -0.021 ± 0.023 | -0.0045 ± 0.021 | 0.012 ± 0.03 | 0.002 ± 0.018 | 0.044 ± 0.028 | -0.001 ± 0.0085 | -0.0105 ± 0.0092 | -0.017 ± 0.051 | -0.0255 ± 0.021 | 0.005 ± 0.037 | 0.001 ± 0.028 | -0.0035 ± 0.0064 | 0.0205 ± 0.03 | -0.02 ± 0.0085 | -0.0125 ± 0.00071 | 0.0085 ± 0.046
9 | BF4T:CD106/VCAM-1 | -0.042 | -0.035 ± 0.02 | -0.0065 ± 0.037 | -0.001 ± 0.02 | 0.002 ± 0.0028 | 0.0015 ± 0.0064 | -0.003 ± 0.051 | -0.0605 ± 0.0078 | -0.0195 ± 0.042 | -0.0525 ± 0.028 | -0.025 ± 0.031 | -0.029 ± 0.011 | 0.022 ± 0.014 | -0.0185 ± 0.029 | 0.0035 ± 0.028 | 0.028 ± 0.072 | 0.002 | 0.0045 ± 0.00071 | 0.0215 ± 0.032
10 | BF4T:uPA | -0.0085 ± 0.00071 | -0.02 ± 0.0085 | 0.0085 ± 0.03 | -0.0055 ± 0.026 | 0.0015 ± 0.012 | -0.0145 ± 0.005 | -0.031 ± 0.011 | -0.0285 ± 0.039 | -0.0185 ± 0.012 | -0.006 ± 0.011 | -0.009 ± 0.021 | -0.0015 ± 0.012 | 0.0155 ± 0.042 | -0.005 ± 0.0071 | -0.011 ± 0.021 | -0.0025 ± 0.005 | -0.0085 ± 0.012 | -0.016 ± 0.016 | -0.0155 ± 0.00071
11 | 3C:Proliferation | -0.0195 ± 0.05 | 0.002 ± 0.098 | -0.0325 ± 0.046 | -0.035 ± 0.0028 | -0.029 ± 0.018 | 0.018 ± 0.03 | 0.0355 ± 0.029 | -0.016 ± 0.013 | -0.0325 ± 0.066 | -0.015 ± 0.086 | -0.0295 ± 0.056 | -0.023 ± 0.03 | -0.0135 ± 0.037 | -0.0225 ± 0.084 | -0.02 ± 0.061 | 0.024 ± 0.042 | 0.004 ± 0.05 | 0.004 ± 0.047 | -0.0485 ± 0.063
12 | BF4T:PAI-I | 0.004 ± 0.0057 | 0.0125 ± 0.0035 | 0.0085 ± 0.018 | 0.007 ± 0.025 | 0.0055 ± 0.012 | -0.007 ± 0.0028 | -0.0175 ± 0.0064 | -0.0255 ± 0.005 | 0.013 ± 0.013 | 0.011 ± 0.0099 | 0.0015 ± 0.0064 | 0.0105 ± 0.0092 | 0.015 ± 0.017 | -0.003 ± 0.0057 | -0.0115 ± 0.0064 | 0.0025 ± 0.023 | -0.004 ± 0.02 | -0.008 ± 0.016 | 0.0115 ± 0.005
13 | BT:B cell Proliferation | -0.002 ± 0.0071 | 0.0275 ± 0.0092 | 0.065 ± 0.016 | -0.022 ± 0.023 | -0.019 ± 0.047 | -0.001 ± 0.05 | -0.007 ± 0.0057 | 0.038 ± 0.0042 | 0.022 ± 0.0057 | -0.01 ± 0.014 | -0.022 ± 0.023 | 0.0015 ± 0.022 | 0.0135 ± 0.005 | 0.0085 ± 0.00071 | -0.029 ± 0.014 | 0.002 ± 0.0042 | 0.0105 ± 0.025 | 0.0195 ± 0.016 | 0.039 ± 0.023
14 | BT:sIL-6 | 0.019 ± 0.044 | 0.019 ± 0.025 | 0.0035 ± 0.047 | 0.0555 ± 0.035 | 0.007 ± 0.018 | -0.033 ± 0.038 | 0.011 ± 0.042 | -0.02 ± 0.041 | 0.0115 ± 0.032 | -0.038 ± 0.028 | 0.004 ± 0.11 | 0.0285 ± 0.036 | -0.0045 ± 0.05 | 0.019 ± 0.064 | 0.055 ± 0.033 | -0.0415 ± 0.088 | 0.041 ± 0.025 | 0.02 ± 0.05 | -0.1305 ± 0.00071
15 | LPS:CD142/Tissue Factor | 0.019 ± 0.033 | 0.0165 ± 0.011 | -0.016 ± 0.1 | 0.0015 ± 0.067 | 0.0175 ± 0.054 | -0.019 ± 0.0085 | 0.0455 ± 0.081 | 0.097 ± 0.065 | 0.0285 ± 0.026 | -0.007 ± 0.013 | 0.0095 ± 0.013 | 0.032 ± 0.021 | 0.0125 ± 0.073 | 0.0045 ± 0.037 | -0.0205 ± 0.00071 | -0.0045 ± 0.019 | 0.02 ± 0.095 | 0.005 ± 0.054 | -0.0475 ± 0.073
